pEC50: −log10 of the molar value.
Each compound was assayed against T1, human liver GK (Homo sapiens, UniProt P35557) (assay: GK activation test). Conditions: test compound concentration needed to activate 50% of maximum activation ability; 4 mM 14C-labeled glucose, 2 mM ATP, room temperature, 20 minutes.
T1 construct: GST (glutathione S-transferase) (N); made in house; host or cells: E. coli
T1 sequence (P35557 1-466 isoform P35557-2): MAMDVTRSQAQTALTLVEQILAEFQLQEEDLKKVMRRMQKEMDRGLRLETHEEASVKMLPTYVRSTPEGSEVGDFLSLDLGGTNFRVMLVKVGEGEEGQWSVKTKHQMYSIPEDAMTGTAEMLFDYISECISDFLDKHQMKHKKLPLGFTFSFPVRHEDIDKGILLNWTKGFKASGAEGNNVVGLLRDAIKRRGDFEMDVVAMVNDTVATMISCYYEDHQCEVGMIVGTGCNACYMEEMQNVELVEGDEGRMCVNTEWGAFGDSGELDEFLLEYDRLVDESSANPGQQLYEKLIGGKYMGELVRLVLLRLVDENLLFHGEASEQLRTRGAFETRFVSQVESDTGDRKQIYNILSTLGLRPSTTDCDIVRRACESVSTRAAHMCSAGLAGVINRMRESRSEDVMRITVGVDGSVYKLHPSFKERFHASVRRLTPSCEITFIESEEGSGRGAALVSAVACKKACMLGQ
Type: biochemical
Protocol: The GK activation test for the test compounds was performed by the method of Irwin A. Rose et al. (J. Biol. Chem. 1964 January; 239:12-7) with partial modifications.
The enzyme source used in this assay, human liver GK, was expressed in E. coli as a fusion protein with GST (glutathione S-transferase) added to the amino terminus and was purified using Glutathione Sepharose 4B (Amersham Biosciences).
The test was carried out using flat-bottom 96-well plates (Sumitomo Bakelite Co., Ltd.). A solution of the test compound in dimethyl sulfoxide (DMSO) and DMSO as a control were added to each well of the plates at a final DMSO concentration of 1%. 25 mM Hepes-KOH (pH=7.1), 25 mM KCl, 2 mM MgCl2, 2 mM ATP, 4 mM ^14C-labeled glucose (Muromachi Yakuhin) and 1 mM DTT (dithiothreitol) were further added at the indicated final concentrations, respectively. Finally, human liver GK was added at 0.24 microgram per well and the reaction was started. The reaction was carried out at room temperature.
After 20 minutes, AG1-X4 resin (BioRad) suspended in 25 mM Hepes-KOH (pH=7.1) was added and the reaction product, labeled glucose 6-phosphate, was allowed to bind thereto. The whole volume was transferred to MultiScreen plates (Millipore) and the resin was washed with water. Thereafter, the labeled glucose 6-phosphate binding to the resin was eluted with a 0.5 M NaCl solution. The labeling activity of the eluted labeled glucose 6-phosphate was measured as an index of GK activity.
The GK activity maximally activated by the test compound was described as maximum activation ability, and the test compound concentration needed to activate 50% of that ability was described as EC50.
Compound `O=C1CCC(CC(c2ccc(C(F)F)cc2)c2ccc(C3CC3)c(=O)[nH]2)N1` (single isomer, unassigned) [Example 4-340, 3-Cyclopropyl-6-[1-[4-(difluoromethyl)phenyl]-2-(5-oxopyrrolidin-2-yl)ethyl]pyridin-2(1H)-one] has a pEC50 of 5.52 to 6.30. With `O=C1CCC(CC(c2ccc(C(F)F)cc2)c2ccc(C3CC3)c(=O)[nH]2)N1` (single isomer, unassigned) [Example 4-341, 3-Cyclopropyl-6-[1-[4-(difluoromethyl)phenyl]-2-(5-oxopyrrolidin-2-yl)ethyl]pyridin-2(1H)-one] the pEC50 was 5.00 to 5.52. `O=C1CC[C@H](CC(c2ccc(S(=O)(=O)C3CC3)c(Cl)c2)c2ccc(C3CC3)c(=O)[nH]2)N1` (single isomer, unassigned) [Example 4-342] showed a pEC50 of 6.30 to 8.00. `O=C1CC[C@H](CC(c2ccc(S(=O)(=O)C3CC3)c(Cl)c2)c2ccc(C3CC3)c(=O)[nH]2)N1` (single isomer, unassigned) [Example 4-343] showed a pEC50 of 5.00 to 5.52. `O=C1CC[C@H](CC(c2ccc(OC3CC3)c(Cl)c2)c2ccc(C3CC3)c(=O)[nH]2)N1` (single isomer, unassigned) [Example 4-344] gave a pEC50 of 6.30 to 8.00. In the case of `O=C1CC[C@H](CC(c2ccc(OC3CC3)c(Cl)c2)c2ccc(C3CC3)c(=O)[nH]2)N1` (single isomer, unassigned) [Example 4-345], the pEC50 was 5.00 to 5.52. Compound `COc1cc(F)c(C(C[C@H]2CCC(=O)N2)c2ccc(C3CC3)c(=O)[nH]2)cc1Cl` (single isomer, unassigned) [Example 4-346] has a pEC50 of 6.30 to 8.00. `COc1cc(F)c(C(C[C@H]2CCC(=O)N2)c2ccc(C3CC3)c(=O)[nH]2)cc1Cl` (single isomer, unassigned) [Example 4-347] gave a pEC50 of 5.00 to 5.52. For `CC(C)Oc1ccc(C(C[C@H]2CCC(=O)N2)c2ccc(C3CC3)c(=O)[nH]2)cc1` (single isomer, unassigned) [Example 4-348], the pEC50 was 5.52 to 6.30. Compound `CC(C)Oc1ccc(C(C[C@H]2CCC(=O)N2)c2ccc(C3CC3)c(=O)[nH]2)cc1F` (single isomer, unassigned) [Example 4-350] has a pEC50 of 6.30 to 8.00. In the case of `CCCOc1ccc(C(C[C@H]2CCC(=O)N2)c2ccc(C3CC3)c(=O)[nH]2)cc1` (single isomer, unassigned) [Example 4-352], the pEC50 was 5.52 to 6.30. Work on `CCOc1ccc(C(C[C@H]2CCC(=O)N2)c2ccc(C3CC3)c(=O)[nH]2)cc1F` (single isomer, unassigned) [Example 4-354] yielded a pEC50 of 5.52 to 6.30. Work on `O=C1CC[C@H](CC(c2ccc(OC(F)F)c(Cl)c2)c2ccc(C3CC3)c(=O)[nH]2)N1` (single isomer, unassigned) [Example 4-356] yielded a pEC50 of 6.30 to 8.00. Compound `O=C1CC[C@H](CC(c2ccc(OC(F)F)c(Cl)c2)c2ccc(C3CC3)c(=O)[nH]2)N1` (single isomer, unassigned) [Example 4-357] has a pEC50 of 5.00 to 5.52. For `CC(C)(C)c1ccc(C(CCN2CCOC2=O)c2ccc(Cl)c(=O)[nH]2)cc1` (single isomer, unassigned) [Example 6-29, 6-[1-(4-tert-Butylphenyl)-3-(2-oxo-1,3-oxazolidin-3-yl)propyl]-3-chloropyridin-2(1H)-one], the pEC50 was 5.52 to 6.30. `CSc1ccc(/C(=C\C2CCCC2)c2ccc(Cl)c(=O)[nH]2)cc1` [Example 1-1, 3-Chloro-6-{(E)-2-Cyclopentyl-1-[4-(methylsulfanyl)phenyl]ethenyl}pyridin-2(1H)-one] gave a pEC50 of 5.52 to 6.30. Work on `CS(=O)(=O)c1ccc(/C(=C\C2CCCC2)c2ccc(Cl)c(=O)[nH]2)cc1` [Example 1-2, 3-Chloro-6-{(E)-2-Cyclopentyl-1-[4-(methylsulfonyl)phenyl]ethenyl}pyridin-2(1H)-one] yielded a pEC50 of 5.52 to 6.30. `CSc1ccc(/C(=C\C2CCCC2)c2ccc(C(C)C)c(=O)[nH]2)cc1` [Example 1-3, 6-{(E)-2-Cyclopentyl-1-[4-(methylsulfanyl)phenyl]ethenyl}-3-(propan-2-yl)pyridin-2(1H)-one] was tested, and the pEC50 was 6.30 to 8.00. For `CC(C)c1ccc(/C(=C/C2CCCC2)c2ccc(S(C)(=O)=O)cc2)[nH]c1=O` [Example 1-4, 6-{(E)-2-Cyclopentyl-1-[4-(methylsulfonyl)phenyl]ethenyl}-3-(propan-2-yl)pyridin-2(1H)-one], the pEC50 was 6.30 to 8.00. In the case of `CSc1ccc(/C(=C\C2CCCC2)c2ccc(C3CC3)c(=O)[nH]2)cc1` [Example 1-5, 6-{(E)-2-Cyclopentyl-1-[4-(methylsulfanyl)phenyl]ethenyl}-3-cyclopropylpyridin-2(1H)-one], the pEC50 was 6.30 to 8.00. `CS(=O)(=O)c1ccc(/C(=C\C2CCCC2)c2ccc(C3CC3)c(=O)[nH]2)cc1` [Example 1-6, 6-{(E)-2-Cyclopentyl-1-[4-(methylsulfonyl)phenyl]ethenyl}-3-cyclopropylpyridin-2(1H)-one] gave a pEC50 of 6.30 to 8.00. Compound `CSc1ccc(/C(=C\C2CCCC2)c2ccc(C)c(=O)[nH]2)cc1` [Example 1-7, 6-{(E)-2-Cyclopentyl-1-[4-(methylsulfanyl)phenyl]ethenyl}-3-methylpyridin-2(1H)-one] has a pEC50 of 6.30 to 8.00. `Cc1ccc(/C(=C/C2CCCC2)c2ccc(S(C)(=O)=O)cc2)[nH]c1=O` [Example 1-8, 6-{(E)-2-Cyclopentyl-1-[4-(methylsulfonyl)phenyl]ethenyl}-3-methylpyridin-2(1H)-one] gave a pEC50 of 5.52 to 6.30. `CCSc1ccc(/C(=C\C2CCCC2)c2ccc(C)c(=O)[nH]2)cc1` [Example 1-9, 6-{(E)-2-Cyclopentyl-1-[4-(ethylsulfanyl)phenyl]ethenyl}-3-methylpyridin-2(1H)-one] gave a pEC50 of 6.30 to 8.00. Work on `CCS(=O)(=O)c1ccc(/C(=C\C2CCCC2)c2ccc(C)c(=O)[nH]2)cc1` [Example 1-10, 6-{(E)-2-Cyclopentyl-1-[4-(ethylsulfonyl)phenyl]ethenyl}-3-methylpyridin-2(1H)-one] yielded a pEC50 of 6.30 to 8.00. `Cc1ccc(/C(=C/C2CCCC2)c2ccc(S(=O)(=O)C3CC3)cc2)[nH]c1=O` [Example 1-11, 6-{(E)-2-Cyclopentyl-1-[4-(cyclopropylsulfonyl)phenyl]ethenyl}-3-methylpyridin-2(1H)-one] was tested, and the pEC50 was 6.30 to 8.00. For `CCc1ccc(/C(=C/C2CCCC2)c2ccc(SCCCO)cc2)[nH]c1=O` [Example 1-12, 6-[(E)-2-Cyclopentyl-1-{4-[(3-hydroxypropyl)sulfanyl]phenyl}ethenyl]-3-ethylpyridin-2(1H)-one], the pEC50 was 6.30 to 8.00. `CCc1ccc(/C(=C/C2CCCC2)c2ccc(S(=O)(=O)CCCO)cc2)[nH]c1=O` [Example 1-13, 6-[(E)-2-Cyclopentyl-1-{4-[(3-hydroxypropyl)sulfonyl]phenyl}ethenyl]-3-ethylpyridin-2(1H)-one] was tested, and the pEC50 was 6.30 to 8.00. In the case of `Cc1ccc(/C(=C/C2CCCC2)c2ccc(S(=O)(=O)N(C)C)cc2)[nH]c1=O` [Example 1-14, 4-[(E)-2-Cyclopentyl-1-(5-methyl-6-oxo-1,6-dihydropyridin-2-yl)ethenyl]-N,N-dimethylbenzenesulfonamide], the pEC50 was 6.30 to 8.00. In the case of `Cc1ccc(/C(=C/C2CCCC2)c2ccc(S(=O)(=O)N(C)CCO)cc2)[nH]c1=O` [Example 1-15, 4-[(E)-2-Cyclopentyl-1-(5-methyl-6-oxo-1,6-dihydropyridin-2-yl)ethenyl]-N-(2-hydroxyethyl)-N-methylbenzenesulfonamide], the pEC50 was 6.30 to 8.00. For `CCc1ccc(/C(=C/C2CCCC2)c2ccc(OC)c(Cl)c2)[nH]c1=O` [Example 1-16, 6-[(E)-1-(3-Chloro-4-methoxyphenyl)-2-cyclopentylethenyl]-3-ethylpyridin-2(1H)-one], the pEC50 was 6.30 to 8.00. With `CCOc1ccc(/C(=C\C2CCCC2)c2ccc(CC)c(=O)[nH]2)cc1Cl` [Example 1-17, 6-[(E)-1-(3-Chloro-4-ethoxyphenyl)-2-cyclopentylethenyl]-3-ethylpyridin-2(1H)-one] the pEC50 was 6.30 to 8.00. With `CSc1ccc(/C(=C\C2CCCC2)c2ccc(C)c(=O)[nH]2)cc1Cl` [Example 1-18, 6-{(E)-1-[3-Chloro-4-(methylsulfanyl)phenyl]-2-cyclopentylethenyl}-3-methylpyridin-2(1H)-one] the pEC50 was 6.30 to 8.00. Work on `Cc1ccc(/C(=C/C2CCCC2)c2ccc(S(C)(=O)=O)c(Cl)c2)[nH]c1=O` [Example 1-19, 6-{(E)-1-[3-Chloro-4-(methylsulfonyl)phenyl]-2-cyclopentylethenyl}-3-methylpyridin-2(1H)-one] yielded a pEC50 of 6.30 to 8.00. In the case of `CCc1ccc(/C(=C/C2CCCC2)c2ccc(SC)c(Cl)c2)[nH]c1=O` [Example 1-20, 6-{(E)-1-[3-Chloro-4-(methylsulfanyl)phenyl]-2-cyclopentylethenyl}-3-ethylpyridin-2(1H)-one], the pEC50 was 6.30 to 8.00.
